The values that follow come from US7745404B2, “Use of calcitonin and calcitonin-like peptides to treat and prevent multiple sclerosis” (Wisconsin Alumni Research Foundation, priority 2002, dated 2010).

In data set [1] the test system is EAE in female C57BL/6J mice. The data set can be described thus: EAE in female C57BL/6J mice, calcitonin and Vit D, Example 4. It is filed as in vivo. The conditions noted are these: for Incidence: vehicle pump, animals sick/total. As to the method: To determine the effect of calcitonin and Vit D on EAE in C57BL/6J mice, female C57BL/6J mice were maintained on standard chow until eight weeks of age, and then switched to a purified diet containing 0.87% calcium supplemented with 1 ng or 30 ng of 1,25-(OH)2D3 for one week prior to EAE immunization.
EAE was induced as described above. Mice were injected with 200 ng of B. pertussis toxin on the day of immunization and 48 hours later.
sCT was prepared as described above. One week after immunization, mice were weighed and the pumps were filled with vehicle or 30 μg/kg per day of sCT of body weight to each mouse. The pumps were surgically placed subcutaneously in the upper back of mice anesthetized with 2% isofluorane. At the end of the study, successful delivery of the sCT was assessed by two methods. First, the fluid volume remaining in the pump reservoirs was measured. Second, the remaining sCT was pooled and intraperitoneally injected into C57BL/6J mice that were not included in the initial study. Serum calcium measurements were taken six hours after injection to determine if sCT maintained its bioactivity throughout the study.
Mice were examined daily, for over two weeks, for clinical signs of EAE utilizing the following scoring system as described above.
(§1) Blood samples were collected at multiple time-points and prepared and analyzed as described above. Likewise, statistical analysis was performed as noted above.

A short description of data set [2]: Serum calcium in female C57BL/6J mice, Example 4. It is filed as in vivo. As to conditions: 30 ng Vit D (regardless of whether sCT was provided) compared to 1 ng Vit D. As to the method: Collected blood samples were centrifuged at 6000 rpm for 15 minutes; followed by another 60-second spin at 14000 rpm. Serum samples were diluted in 0.1% LaCl3 and serum calcium values were measured using a Perkin Elmer atomic absorption spectrometer.
as §1

Setting [3] is: female C57BL/6J, 0.87% calcium diet with 1 ng Vit D.
The mark [4] stands for this setting: female C57BL/6J, 0.87% calcium diet with 30 ng Vit D.

In the case of `C=C1/C(=C\C=C2/CCC[C@]3(C)[C@@H]([C@H](C)CCCC(C)(C)O)CC[C@@H]23)C[C@@H](O)C[C@@H]1O` [Vit D, 1α,25-dihydroxyvitamin D3], the EAE score entry in data set [1] (female C57BL6J mice, 30 ng Vit D, compared to 1 ng Vit D alone (FIG. 5, Table 6)) was “delayed and diminished the EAE score”. The “% Sick” value in data set [1] (setting [3]) was 67.0%; in data set [1] (setting [4]), 0.0%. Further, the Incidence in data set [1] (setting [3]) is recorded as 6/9 sick; in data set [1] (setting [4]), 0/8 sick. The Severity in data set [1] (female C57BL/6J, 0.87% calcium diet with 1 ng Vit D, EAE score 0-5) came out at 2.9 ± 0.9. Moreover, the “Mean Onset Day” value in data set [1] (female C57BL/6J, 0.87% calcium diet with 1 ng Vit D, days post immunization) worked out at 15 ± 2 days. The serum calcium levels result in data set [2] was “elevated”.
